In article PMC3600304, “Inhibitors of Fatty Acid Synthesis Induce PPARα-Regulated Fatty Acid β-Oxidative Genes: Synergistic Roles of L-FABP and Glucose” (PPAR Research, 2013):

Key:
[1] = tested on: PPARα transcription of CPT1A, CPT2, ACOX1; experiment: rtPCR of CPT1A, CPT2, ACOX1 mRNA in L-FABP (−/−) null mouse primary hepatocytes; assay type: cell-based; settings: for PPARα transcription of CPT1A, CPT2, ACOX1 (mRNA): 6 mM glucose; for PPARα transcription of CPT1A, CPT2, ACOX1 (mRNA) / Ability to activate PPARα transcription of CPT1A, CPT2, ACOX1 (mRNA): inhibitor 10 μg/mL, 5 hr
Description: Wild-type mice on a C57BL/6N background purchased from Charles River Laboratories (Wilmington, MA, USA) were obtained from the National Cancer Institute (Frederick Cancer Research and Development Center, Frederick, MD, USA). L-FABP (−/−) null mice were obtained by targeted disruption of the L-FABP gene and backcrossed to C57Bl/6N background to the N10 (99.9% homogeneity) generation. For hepatocyte isolation, livers were collected from male mice aged 3–6 mo. Mouse protocols were approved by the Institutional Animal Care and Use Committee (IACUC) at Texas A&M University. Mice were kept under a constant 12/12 light-dark cycle and had access to food and water ad libitum.
(§1) Mouse hepatocytes were isolated from livers of male wild-type and L-FABP null mice as described. To study the effect of TOFA and C75 at different glucose levels, mouse hepatocytes were cultured overnight with DMEM/F-12 supplemented with 5% FBS. Cells were incubated with glucose-free DMEM supplemented with fatty acid-free BSA (40 μM), 100 nM insulin, 10 nM dexamethasone, and without (no inhibitor) or with the de novo fatty acid synthesis inhibitors C75 or TOFA (10 μg/mL) for 30 min (1 mL/well). Cells were incubated further for 5 hr with 6 or 20 mM glucose without or with the inhibitors.
(§2) Transcription of key enzymes in mitochondrial (CPT1A and CPT2) and peroxisomal (ACOX1) β-oxidation of long chain fatty acid (LCFA) was determined by rtPCR similarly as described. Briefly, the RNeasy mini kit from Qiagen Sciences (MD, USA) was used as per the manufacturer's instructions to isolate total RNA, which was then quantified spectrophotometrically. Quantitative real-time PCR was performed with an ABI PRISM 7000 Sequence Detection System (SDS) from Applied Biosystems (Foster City, CA, USA) to determine relative mRNA expression for CPT1A, CPT2, and ACOX1. The thermal protocol was as follows: 48°C for 30 min, 95°C for 10 min before the first cycle, 95°C for 15 sec, and 60°C for 60 sec, repeated 40 times. TaqMan One-Step Master Mix and Gene Expression Assays for mouse CPT1A (Mm 00550438_m1), CPT2 (Mm 00487202_m1), and ACOX1 (Mm 00443579_m1) were purchased from Applied Biosystems (Life Technologies, Carlsbad, CA, USA). Triplicates of each sample were analyzed with ABI PRISM 7000 SDS software (Applied Biosystems) to determine ΔCt relative to a positive control (18S housekeeping gene). The fold change in the abundance of CPT1A, CPT2, and ACOX1 mRNAs was determined in primary mouse hepatocytes treated with albumin (40 μM) in the absence and presence of lipid synthesis inhibitors (C75, TOFA, 10 μg/mL) in glucose-free DMEM medium supplemented with 100 nM insulin, 10 nM dexamethasone, and either 6 or 20 mM glucose. The comparative 2^−ΔΔCt calculation method was used as described in User Bulletin 2, ABI Prism 7000 SDS (Applied Biosystems), and earlier. Finally, protein levels of liver fatty acid binding protein (L-FABP), sterol carrier protein-2 (SCP-2), acyl CoA binding protein (ACBP), peroxisome proliferator activated receptor (PPARα), liver X receptor-α (LXRα), carbohydrate response element binding protein (ChREBP), and sterol response element binding protein (SREBP) were determined by western blotting as described.

[2] = tested on: PPARα transcription of CPT1A, CPT2, ACOX1; experiment: rtPCR of CPT1A, CPT2, ACOX1 mRNA in wild-type mouse primary hepatocytes; assay type: cell-based; settings: inhibitor 10 μg/mL, 5 hr
Description: as §1, §2

L-FABP [3] = biological target: T1, L-FABP (Rattus norvegicus, UniProt P02692); experiment: Displacement of L-FABP-bound ANS; assay type: binding; settings: read-out: K i, displacing L-FABP-bound ANS
T1 construct: made in house
T1 sequence (P02692 1-127): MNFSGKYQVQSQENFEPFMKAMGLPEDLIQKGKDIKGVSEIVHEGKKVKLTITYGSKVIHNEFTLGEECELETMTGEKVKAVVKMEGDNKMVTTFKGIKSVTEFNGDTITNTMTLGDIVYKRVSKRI
Description: (§3) Advantage was taken of the fact that NBD-stearic acid bound to L-FABP (two ligand binding sites) as well as SCP-2 (single-ligand binding site) to design a NBD-stearic acid displacement assay that allowed determination of which fatty acid synthesis inhibitors or their CoA thioesters bound to these LCFA/LCFA-CoA binding proteins. Displacement of NBD-stearate from L-FABP and SCP-2 was determined by incubating L-FABP or SCP-2 (25 nM in 10 mM phosphate buffer) with NBD stearate (40 nM) for 12 min to obtain maximal fluorescence, followed by titration with increasing amount of ligand. From the displacement curve, the K i value was calculated as described. All experiments were carried out with a thermostated cuvette to maintain temperature at 24°C using a circulating water bath. ANS displacement assay was performed as described.

SCP-2 = biological target: T2, SCP-2 (Homo sapiens, UniProt P22307); experiment: Displacement of SCP-2-bound NBD-stearic acid; assay type: binding
T2 construct: made in house
T2 sequence (P22307 1-143 isoform P22307-2): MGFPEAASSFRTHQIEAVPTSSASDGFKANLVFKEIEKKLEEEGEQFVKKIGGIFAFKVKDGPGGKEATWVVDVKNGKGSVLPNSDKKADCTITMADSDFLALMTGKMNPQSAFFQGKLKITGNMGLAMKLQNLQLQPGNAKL
Description: as §3

CPT1A = tested on: CPT1A; parameters: method as in PMID 39932, PMID 4051503, PMID 12060712, PMID 502765; settings: rat hepatocytes, media with high glucose (11 mM); cited from earlier work
L-FABP [4] = biological target: T1, L-FABP; experiment: L-FABP tyrosine fluorescence quenching; assay type: binding; settings: L-FABP 100 nM
Description: Tyrosine fluorescence of L-FABP (100 nM) in 10 mM phosphate buffer was monitored by scanning from 290 to 400 nm, with excitation wavelength 280 nm, before and after small increments of added binding ligand. The binding curve was constructed by plotting tyrosine fluorescence intensity at 305 nm versus concentration of the ligand. K d was then calculated as described.

PPARα = settings: COS7 cells; cited from earlier work

Ki (L-FABP [3])	Displacement of NBD-stearic acid bound to SCP-2 (in words) (SCP-2)	K i, displacing SCP-2-bound NBD-stearic acid (SCP-2; SCP-2 25 nM, NBD stearate 40 nM, 24°C)	Quenching of L-FABP tyrosine emission (in words) (L-FABP [4])	Kd (L-FABP [4]; 10 mM phosphate buffer, read-out: K d by L-FABP tyrosine quenching (converted))	Ki (SCP-2; SCP-2 25 nM, NBD stearate 40 nM, 24°C, read-out: K i, displacing SCP-2-bound NBD-stearic acid)	Structure (SMILES)	PPARα transcription of CPT1A, CPT2, ACOX1 (mRNA) [1]	Ability to activate PPARα transcription of CPT1A, CPT2, ACOX1 (mRNA) ([1]; 20 mM glucose)	PPARα transcription of CPT1A, CPT2, ACOX1 (mRNA) ([2]; 6 mM glucose)	PPARα transcription of CPT1A, CPT2, ACOX1 (mRNA) ([2]; 20 mM glucose)	CPT1A activity and fatty acid oxidation (CPT1A)	Decrease of PPARα transcription of CPT1A, CPT2, or ACOX1 ([1]; 20 mM glucose, TOFA 10 μg/mL)	Transactivation of PPARα (PPARα)
5590 ± 310 nM	barely detectable	not bound^(a)				C=C1C(=O)OC(CCCCCCCC)C1C(=O)O (stereo not drawn) [C75, 4-methylene-2-octyl-5-oxotetrahydrofuran-3-carboxylic acid]	lack of effect	abolished	neither TOFA nor C75 significantly altered	induced	increased		
			efficiently quenched	57 nM	227 ± 20 nM	CCCCCCCCCCCCCCOc1ccc(C(=O)O)o1 [TOFA, 5-tetradecyloxy-2-furancarboxylic acid]	lack of effect	abolished	neither TOFA nor C75 significantly altered	induced	increased	~50%	transactivated
